Reference: patent publication US9040715B2 (priority 2008, dated 2015)
≈ marks a conversion by molar mass, not a printed value. Like-named read-outs stand apart in the source and are kept apart here. *1 amine or outer side, *2 acyl side, *3 side chain or, on linkers, in order; H or OH if unused. Where a SMILES comes first, the peptide text is derived from it. Bridges are numbered along the chain shown (N, C = ends). [ ]: non-standard residue; d: D form. The star is where a group is joined. hTyr(3S-OH,4S-OH,3'-OSO3H) = N[C@H](C(=O)O)[C@H](O)[C@@H](O)c1ccc(O)c(OS(=O)(=O)O)c1; Orn(4R-OH,5R-OH) = O=C([C@H](C[C@@H](O)[C@@H](O)N[*:3])N[*:1])[*:2]; Pro(3S-OH,4S-Me) = C[C@H]1CN[C@H](C(=O)O)[C@H]1O; X1 = CCCCCOc1ccc(-c2cc(-c3ccc(C(=O)*)cc3)no2)cc1; Gln(3R-OH) = NC(=O)C[C@@H](O)[C@H](N)C(=O)O; Hyp = O=C(O)[C@@H]1C[C@@H](O)CN1

Columns and labels:
Type in all cases: cell-based
[1] = tested on: Aspergillus fumigatus; assay: Anti-fungal/anti-yeast activity: MIC50 (broth microdilution) and MFC
Protocol: (§1) Fluconazole, an ergosterol inhibitor, and the beta-1,3-glucan inhibitor micafungin served as controls (See Tables 1-8).
(§2) The minimum inhibitory concentrations resulting in 50% growth inhibition (MIC50) of […] Candida species (C. albicans, C. tropicalis and C. glabrata, C. lusitaniae, C. parapsilosis, and C. apicola) as well as Aspergillus fumigatus to a set of novel synthetic compounds was determined in accordance with the guidelines in CLSI document M27-A2 (Clinical and Laboratory Standards Institute; Wayne, Pa.). The total volume of cells and drug was 100 μL per microtiter well, and each drug was diluted in RPMI to achieve final concentrations of 0.2-100 μg/ml. Uninoculated cultures were used as a reference standard. Stock inoculum suspensions were prepared from 24 hour cultures on YPD (yeast extract/peptone/dextrose) media at 30° C. For MIC determinations, an inoculum of 1.0×10^3 cells of Candidia and 2.0×10^3 cells of Aspergillus per well were used, and cells in diluted drugs were prepared in RPMI-1640 medium. MICs were determined both visually and spectrophotometrically at 24 hours and 48 h at 550 nm using a micro plate reader. The MIC50 endpoint was measured as the lowest drug concentration resulting in a reduction of growth of 50% or more compared with growth of the control.
(§3) The minimum fungicidal concentrations (MFCs) were determined for each drug-isolate-medium combination as follows. After 48 hours of incubation, 100 μL of each drug-isolate-medium combination (2 plates) was subcultured onto YPD plates (100 μL of solution was spread over the YPD plate). […] The plates were then incubated at 30° C. for 48 hours.
(§4) The in vitro fungicidal activities (MFCs) were determined for each drug-isolate-medium combination as follows. After 48 hours of incubation, 10 μL each drug-isolate-medium combination was spotted onto YPD plates (10 μL of each well is spotted sequentially with positive and negative control wells). […] The plates were then incubated at 30° C. for 48 hours.

[2] = tested on: Candida albicans (CAF-2); assay: as above
Protocol: as §1, §2, §3, §4

[3] = tested on: Candida apicola; assay: as above; conditions: for MFC / MIC50: Starmerella apicola
Protocol: as §1, §2, §3, §4

[4] = tested on: Candida glabrata; assay: as above; conditions: for MFC / MIC50: Nakaseomyces glabratus
Protocol: as §1, §2, §3, §4

[5] = tested on: Candida lusitaniae; assay: as above; conditions: for MFC / MIC50: Clavispora lusitaniae
Protocol: as §1, §2, §3, §4

[6] = tested on: Candida tropicalis; assay: as above
Protocol: as §1, §2, §3, §4

[7] = tested on: Candidia parapsilosis; assay: as above
Protocol: as §1, §2, §3, §4

[8] = tested on: Saccharomyces cerevisiae (YPH501); assay: as above
[9] = tested on: Fluconazole Resistant C. albicans; assay: microbe, parasite or virus in culture; conditions: Candida albicans, read-out: MIC50
Protocol: as §2
The MIC50 of Compounds I-1, I-2, and I-5 in several mutant strains of Candida albicans, including fluconazole resistant clinical strains, was determined according to the methods described in Example 1 (see Table 9). The activity of Compound I-1 against fluconazole resistant strains was further explored (see Table 10). In Table 10, Strain #1 is a fluconazole sensitive Candida albicans strain; Strain #17 is a fluconazole resistant Candida albicans strain; C. albicans CS#01 is a first clinical strain; C. albicans CS#02 is a second clinical strain.

[10] = Saccharomyces cerevisiae (YPH501)

Row | SMILES | Activity (fungicidal/fungistatic) [1] | Ratio MFC/MIC [1] | Activity (fungicidal/fungistatic) [2] | MFC [2] [µg/mL] | MIC50 [2] [µg/mL] | Ratio MFC/MIC [2] | Activity (fungicidal/fungistatic) ([3]; Candida apicola) | Ratio MFC/MIC ([3]; Candida apicola) | Activity (fungicidal/fungistatic) ([4]; Candida glabrata) | Ratio MFC/MIC ([4]; Candida glabrata) | Activity (fungicidal/fungistatic) ([5]; Candida lusitaniae) | Ratio MFC/MIC ([5]; Candida lusitaniae) | Activity (fungicidal/fungistatic) [6] | Ratio MFC/MIC [6] | Activity (fungicidal/fungistatic) ([7]; Candidia parapsilosis) | Ratio MFC/MIC ([7]; Candidia parapsilosis) | Activity (fungicidal/fungistatic) [8, 10] | Ratio MFC/MIC [8, 10] | also measured
1 | OC(Cn1cncn1)(Cn1cncn1)c1ccc(F)cc1F [Fluconazole, reference compound] | fungistatic (an MFC/MIC ratio of greater than four indicates that the compound is fungistatic) | 7 | fungistatic (an MFC/MIC ratio of greater than four indicates that the compound is fungistatic) | 5 | 0.25 | 20 | fungistatic (an MFC/MIC ratio of greater than four indicates that the compound is fungistatic) | 5 | fungistatic (an MFC/MIC ratio of greater than four indicates that the compound is fungistatic) | 9 | fungistatic (an MFC/MIC ratio of greater than four indicates that the compound is fungistatic) | 8 | fungistatic (an MFC/MIC ratio of greater than four indicates that the compound is fungistatic) | 5 | fungistatic (an MFC/MIC ratio of greater than four indicates that the compound is fungistatic) | 10 | fungicidal (An MFC/MIC ratio of less than four indicates that the compound is fungicidal) | 1 | MFC ([1]; read-out: MFC): 200 µg/mL; MIC50 ([1]; read-out: MIC-50): 30 µg/mL; MFC ([3]; Candida apicola, read-out: MFC): 1 µg/mL; MIC50 ([3]; Candida apicola, read-out: MIC-50): 0.2 µg/mL; MFC ([4]; Candida glabrata, read-out: MFC): 50 µg/mL; MIC50 ([4]; Candida glabrata, read-out: MIC-50): 6.2 µg/mL; MFC ([5]; Candida lusitaniae, read-out: MFC): 25 µg/mL; MIC50 ([5]; Candida lusitaniae, read-out: MIC-50): 3.2 µg/mL; MFC ([6]; read-out: MFC): 100 µg/mL; MIC50 ([6]; read-out: MIC-50): 20 µg/mL; MFC ([7]; Candidia parapsilosis, read-out: MFC): 4 µg/mL; MIC50 ([7]; Candidia parapsilosis, read-out: MIC-50): 0.4 µg/mL; MFC ([8]; Saccharomyces cerevisiae (YPH501), read-out: MFC): 10 µg/mL (≈ 32.7 µM); MIC50 ([8]; Saccharomyces cerevisiae (YPH501), read-out: MIC-50): 10 µg/mL (≈ 32.7 µM); MIC50 ([9]; C. albicans CS#01, first clinical strain): 1.6 µg/mL (≈ 5.22 µM); MIC50 ([9]; C. albicans CS#02, second clinical strain): 1.6 µg/mL (≈ 5.22 µM); MIC50 ([9]; Strain #1, fluconazole sensitive Candida albicans strain): 0.8 µg/mL (≈ 2.61 µM); MIC50 ([9]; Strain #17, fluconazole resistant Candida albicans strain): > 100 µg/mL
2 | CCCCCOc1ccc(-c2cc(-c3ccc(C(=O)N[C@H]4C[C@@H](O)[C@@H](O)NC(=O)[C@@H]5[C@@H](O)[C@@H](C)CN5C(=O)[C@H]([C@H](O)CC(N)=O)NC(=O)[C@H]([C@H](O)[C@@H](O)c5ccc(O)c(OS(=O)(=O)O)c5)NC(=O)[C@@H]5C[C@@H](O)CN5C(=O)[C@H]([C@@H](C)O)NC4=O)cc3)no2)cc1 [Micafungin, micafungin, reference compound] (X1-[Orn(4R-OH,5R-OH)]T[Hyp][hTyr(3S-OH,4S-OH,3'-OSO3H)][Gln(3R-OH)][Pro(3S-OH,4S-Me)]; lactam 1-C) | fungistatic (an MFC/MIC ratio of greater than four indicates that the compound is fungistatic) | 8 | fungicidal (An MFC/MIC ratio of less than four indicates that the compound is fungicidal) | 0.016 | 0.016 | 1 | fungicidal (An MFC/MIC ratio of less than four indicates that the compound is fungicidal) | 2 | fungicidal (An MFC/MIC ratio of less than four indicates that the compound is fungicidal) | 1 | fungicidal (An MFC/MIC ratio of less than four indicates that the compound is fungicidal) | 1 | fungicidal (An MFC/MIC ratio of less than four indicates that the compound is fungicidal) | 2 | fungistatic (an MFC/MIC ratio of greater than four indicates that the compound is fungistatic) | 8 | fungicidal (An MFC/MIC ratio of less than four indicates that the compound is fungicidal) | 2 | MFC [1]: 8 µg/mL; MIC50 [1]: 1 µg/mL; MFC [3]: 0.032 µg/mL; MIC50 [3]: 0.016 µg/mL; MFC [4]: 0.016 µg/mL; MIC50 [4]: 0.016 µg/mL; MFC [5]: 0.032 µg/mL; MIC50 [5]: 0.032 µg/mL; MFC [6]: 0.032 µg/mL; MIC50 [6]: 0.016 µg/mL; MFC [7]: 3.2 µg/mL; MIC50 [7]: 0.4 µg/mL; MFC ([8]; Saccharomyces cerevisiae): 0.064 µg/mL (≈ 0.0504 µM); MIC50 ([8]; Saccharomyces cerevisiae): 0.032 µg/mL (≈ 0.0252 µM)
